{
  "source": "patent US8436027B2",
  "about": "“Azole compounds used as tuberculostatic and leishmanicide agents” (priority 2005, dated 2013)",
  "key": {"[1]": {"test_system": "Mycobacterium tuberculosis H37Rv (ATCC-27294)", "assay": "MIC by MABA (Microplate Alamar Blue Assay), antimicrobial activity", "type": "cell-based", "conditions": "M. tuberculosis H37Rv (ATCC 27294); for MIC: MABA, 5 days incubation + 24 h Alamar Blue; for Inhibition (%): concentration not given"}, "[2]": {"test_system": "promastigote forms of Leishmania amazonensis", "assay": "Leishmanicide evaluation in vitro, live parasites counted by fluorescence", "type": "cell-based", "conditions": "for Percentage of parasitic inhibition: L. amazonensis promastigotes; for leishmanicide activity (inhibition): Table 6", "protocol": "The evaluation of the Leishmanicide activity of the type I and II 1,2,3-triazole derivatives was made through in vitro essays against promastigote forms of Leishmania amazonensis, and after the incubation with compounds, live parasites are counted by fluorescence, thus obtaining as a result, the percentage of inhibition of the compounds evaluated.\nEssays were performed in triplicate using pentamidine as a positive pattern with a 160 μg/mL concentration.\nThe evaluation of the leishmanicide activity of type I (Formula XII) and II (Formula XIII) imidazole derivatives was performed through in vitro essays against promastigote forms of Leishmania amazonensis, and after the incubation with compounds, live parasites are counted by fluorescence, thus obtaining as a result the inhibition percentage of the evaluated compounds.\nEssays were performed in triplicate using pentamidine as a positive pattern with a 160 μg/mL concentration, determining which compounds evaluated inhibited the parasite in lower concentrations and the percentage higher than the pattern. Table 6 lists the results obtained in the leishmanicide evaluation of derivatives 140a 148a 146a, 149a."}, "M. tuberculosis": {"test_system": "M. tuberculosis", "conditions": "background statement; cited from earlier work"}},
  "note": "Values joined by “and” are separate entries in the source; they are usually repeats but may differ in a detail not shown here. Identical values can stand only once.",
  "data": [
    {"smiles": "O=Cc1cn(-c2ccc(Cl)cc2)nn1", "note": "[114a, 4-carboxaldehyde-1-(4-chlorophenyl)-1H-1,2,3-triazole]", "values": [
      {"measurement": "MIC", "setting": "[1]", "value": "5 µg/mL and 5.0 µg/mL"}
    ]},
    {"smiles": "O=Cc1cn(-c2ccc(Br)cc2)nn1", "note": "[114b, 4-carboxaldehyde-1-(4-bromophenyl)-1H-1,2,3-triazole]", "values": [
      {"measurement": "MIC", "setting": "[1]", "value": 5.0, "unit": "µg/mL"},
      {"measurement": "Inhibition (%)", "setting": "[1]", "value": 100, "unit": "%"}
    ]},
    {"smiles": "Cc1ccc(-n2cc(C=O)nn2)cc1", "note": "[114c, 4-carboxaldehyde-1-(4-methylphenyl)-1H-1,2,3-triazole]", "values": [
      {"measurement": "MIC", "setting": "[1]", "value": 2.5, "unit": "µg/mL"},
      {"measurement": "Inhibition (%)", "setting": "[1]", "value": 100, "unit": "%"}
    ]},
    {"smiles": "COc1ccc(-n2cc(C=O)nn2)cc1", "note": "[114d, 4-carboxaldehyde-1-(4-methoxyphenyl)-1H-1,2,3-triazole]", "values": [
      {"measurement": "MIC", "setting": "[1]", "value": 10.0, "unit": "µg/mL"},
      {"measurement": "Inhibition (%)", "setting": "[1]", "value": 100, "unit": "%"}
    ]},
    {"smiles": "COc1ccc(OC)c(-n2cc(C=O)nn2)c1", "note": "[114e, 4-carboxaldehyde-1-(2,5-dimethoxyphenyl)-1H-1,2,3-triazole]", "values": [
      {"measurement": "MIC", "setting": "[1]", "value": 80.0, "unit": "µg/mL"},
      {"measurement": "Inhibition (%)", "setting": "[1]", "value": 59, "unit": "%"}
    ]},
    {"smiles": "O=Cc1cn(-c2cccc(Cl)c2)nn1", "note": "[114f, 4-carboxaldehyde-1-(3-chlorophenyl)-1H-1,2,3-triazole]", "values": [
      {"measurement": "Percentage of parasitic inhibition", "setting": "[2]; Concentration 20 μg/mL", "value": "No inhibition"}
    ]},
    {"smiles": "O=Cc1cn(-c2cc(Cl)cc(Cl)c2)nn1", "note": "[114g, 4-carboxaldehyde-1-(3,5-dichlorophenyl)-1H-1,2,3-triazole]", "values": [
      {"measurement": "MIC", "setting": "[1]", "value": 2.5, "unit": "µg/mL"}
    ]},
    {"smiles": "N#Cc1cccc(-n2cc(C=O)nn2)c1", "note": "[114h, 4-carboxaldehyde-1-(3-cyanophenyl)-1H-1,2,3-triazole]", "values": [
      {"measurement": "MIC", "setting": "[1]", "value": 20.0, "unit": "µg/mL"}
    ]},
    {"smiles": "N#Cc1ccc(-n2cc(C=O)nn2)cc1", "note": "[114i, 4-carboxaldehyde-1-(4-cyanophenyl)-1H-1,2,3-triazole]", "values": [
      {"measurement": "MIC", "setting": "[1]", "value": 5.0, "unit": "µg/mL"}
    ]},
    {"smiles": "O=Cc1cn(-c2ccc([N+](=O)[O-])cc2)nn1", "note": "[114j, 4-carboxaldehyde-1-(4-nitrophenyl)-1H-1,2,3-triazole]", "values": [
      {"measurement": "MIC", "setting": "[1]", "value": 20.0, "unit": "µg/mL"}
    ]},
    {"smiles": "COc1ccccc1-n1cc(C=O)nn1", "note": "[114l, 4-carboxaldehyde-1-(2-methoxyphenyl)-1H-1,2,3-triazole]", "values": [
      {"measurement": "MIC", "setting": "[1]", "value": 40.0, "unit": "µg/mL"},
      {"measurement": "Inhibition (%)", "setting": "[1]", "value": 94, "unit": "%"}
    ]},
    {"smiles": "COc1ccc(-n2cc(C=O)nn2)cc1OC", "note": "[114m, 4-carboxaldehyde 1-(3,4-dimethoxyphenyl)-1H-1,2,3-triazole]", "values": [
      {"measurement": "MIC", "setting": "[1]", "value": 80.0, "unit": "µg/mL"}
    ]},
    {"smiles": "FC(F)c1cn(-c2ccc(Cl)cc2)nn1", "note": "[121a, 1-(4-chlorophenyl)-4-difluoromethyl-1H-1,2,3-triazole]", "values": [
      {"measurement": "MIC", "setting": "[1]", "value": 40.0, "unit": "µg/mL"}
    ]},
    {"smiles": "O=[N+]([O-])c1ccc(-n2cc(C(F)F)nn2)cc1", "note": "[121j, 1-(4-nitrophenyl)-4-difluoromethyl-1H-1,2,3-triazole]", "values": [
      {"measurement": "MIC", "setting": "[1]", "value": 40.0, "unit": "µg/mL"}
    ]},
    {"smiles": "NNC(=O)c1ccncc1", "note": "[INH, isoniazide]", "values": [
      {"measurement": "minimum inhibitory concentration (MIC)", "setting": "M. tuberculosis", "value": "0.02 to 0.06", "unit": "µg/mL"}
    ]},
    {"smiles": "Clc1ccc(/N=C/c2cn(-c3ccc(Cl)cc3)nn2)cc1", "note": "[compound 119, (E)-4-chloride-N-((1-(4-chlorophenyl)-1H-1,2,3-triazole-4-il)methylene)benzenamine]", "values": [
      {"measurement": "MIC", "setting": "[1]", "value": 40, "unit": "µg/mL"}
    ]},
    {"smiles": "Brc1ccc(/N=C/c2cn(-c3ccc(Br)cc3)nn2)cc1", "note": "[compound 120, (E)-4-bromo-N-((1-(4-bromophenyl)-1H-1,2,3-triazole-4-il)methylene)benzenamine]", "values": [
      {"measurement": "MIC", "setting": "[1]", "value": 20, "unit": "µg/mL"}
    ]},
    {"smiles": "N=C(N)c1ccc(OCCCCCOc2ccc(C(=N)N)cc2)cc1", "note": "[pentamidine]", "values": [
      {"measurement": "leishmanicide activity (inhibition)", "setting": "[2]; Conc. 5 μ/mL", "value": "No inhibition"},
      {"measurement": "leishmanicide activity (inhibition)", "setting": "[2]; Conc. 10 μ/mL", "value": "No inhibition"},
      {"measurement": "leishmanicide activity (inhibition)", "setting": "[2]; Conc. 20 μ/mL", "value": "No inhibition"},
      {"measurement": "leishmanicide activity (inhibition)", "setting": "[2]; Conc. 80 μ/mL", "value": "No inhibition"},
      {"measurement": "Percentage of parasitic inhibition", "setting": "[2]; Concentration 5 μg/mL", "value": "No inhibition"},
      {"measurement": "Percentage of parasitic inhibition", "setting": "[2]; Concentration 10 μg/mL", "value": "No inhibition"},
      {"measurement": "Percentage of parasitic inhibition", "setting": "[2]; Concentration 20 μg/mL", "value": "No inhibition"},
      {"measurement": "Percentage of parasitic inhibition", "setting": "[2]; Concentration 80 μg/mL", "value": "No inhibition"}
    ]}
  ]
}
